From ChEMBL document CHEMBL1155237, “Selective inhibitors of the mutant B-Raf pathway: discovery of a potent and orally bioavailable aminoisoquinoline” (J Med Chem, 2009)
pIC50: −log10 of the molar value.

Assays:
[1] = molecular target: Ribosomal protein S6 kinase alpha-4 (Homo sapiens) (UniProt O75676); experiment: Inhibition of RPS6KA4 kinase domain 2 assessed as enzyme activity at 1 uM relative to untreated control; parameters: scale not given: the % may be the effect or the level left
[2] = molecular target: Rho-associated protein kinase 2 (Homo sapiens) (UniProt O75116); experiment: Inhibition of ROCK2 assessed as enzyme activity at 1 uM relative to untreated control; parameters: scale not given: the % may be the effect or the level left
Angiopoietin-1 receptor = Angiopoietin-1 receptor (Homo sapiens, UniProt Q02763); experiment: Inhibition of Tie2
[3] = system: Tyrosine-protein kinase ABL1 (Homo sapiens), P00519 [F317L]; experiment: Inhibition of ABL1 F317L mutant assessed as enzyme activity at 1 uM relative to untreated control; parameters: scale not given: the % may be the effect or the level left
[4] = molecular target: Serine/threonine-protein kinase Chk2 (Homo sapiens) (UniProt O96017); experiment: Inhibition of CHEK2 assessed as enzyme activity at 1 uM relative to untreated control; parameters: scale not given: the % may be the effect or the level left
[5] = molecular target: Serine/threonine-protein kinase MARK1 (Homo sapiens) (UniProt Q9P0L2); experiment: Inhibition of MARK1 assessed as enzyme activity at 1 uM relative to untreated control; parameters: scale not given: the % may be the effect or the level left
[6] = Oral bioavailability in CD1 mouse; type: ADME, organism-based; details: in vivo
[7] = molecular target: Calcium/calmodulin-dependent protein kinase type 1D (Homo sapiens) (UniProt Q8IU85); experiment: Inhibition of CAMK1D assessed as enzyme activity at 1 uM relative to untreated control; parameters: scale not given: the % may be the effect or the level left
[8] = molecular target: Serine/threonine-protein kinase 24 (Homo sapiens) (UniProt Q9Y6E0); experiment: Inhibition of MST3 assessed as enzyme activity at 1 uM relative to untreated control; parameters: scale not given: the % may be the effect or the level left
[9] = molecular target: Cyclin-dependent kinase 11B (Homo sapiens) (UniProt P21127); experiment: Inhibition of CDC2L1 assessed as enzyme activity at 1 uM relative to untreated control; parameters: scale not given: the % may be the effect or the level left
[10] = molecular target: Dual specificity mitogen-activated protein kinase kinase 3 (Homo sapiens) (UniProt P46734); experiment: Inhibition of MEK3 assessed as enzyme activity at 1 uM relative to untreated control; parameters: scale not given: the % may be the effect or the level left
[11] = molecular target: Serine/threonine-protein kinase PLK3 (Homo sapiens) (UniProt Q9H4B4); experiment: Inhibition of PLK3 assessed as enzyme activity at 1 uM relative to untreated control; parameters: scale not given: the % may be the effect or the level left
[12] = molecular target: Tyrosine-protein kinase receptor TYRO3 (Homo sapiens) (UniProt Q06418); experiment: Inhibition of TYRO3 assessed as enzyme activity at 1 uM relative to untreated control; parameters: scale not given: the % may be the effect or the level left
[13] = molecular target: Serine/threonine-protein kinase 35 (Homo sapiens) (UniProt Q8TDR2); experiment: Inhibition of STK35 assessed as enzyme activity at 1 uM relative to untreated control; parameters: scale not given: the % may be the effect or the level left
[14] = molecular target: Receptor tyrosine-protein kinase erbB-4 (Homo sapiens) (UniProt Q15303); experiment: Inhibition of ERBB4 assessed as enzyme activity at 1 uM relative to untreated control; parameters: scale not given: the % may be the effect or the level left
[15] = molecular target: Mitogen-activated protein kinase kinase kinase 9 (Homo sapiens) (UniProt P80192); experiment: Inhibition of MLK1 assessed as enzyme activity at 1 uM relative to untreated control; parameters: scale not given: the % may be the effect or the level left
[16] = molecular target: Macrophage colony-stimulating factor 1 receptor (Homo sapiens) (UniProt P07333); experiment: Inhibition of CSF1R assessed as enzyme activity at 1 uM relative to untreated control; parameters: scale not given: the % may be the effect or the level left
[17] = molecular target: Serine/threonine-protein kinase PAK 5 (Homo sapiens) (UniProt Q9P286); experiment: Inhibition of PAK7/PAK5 assessed as enzyme activity at 1 uM relative to untreated control; parameters: scale not given: the % may be the effect or the level left
[18] = Elimination half life in Sprague-Dawley rat at 2 mg/kg, iv and 5 mg/kg, po; type: ADME, organism-based; details: in vivo, read-out: beta t1/2 (converted)
[19] = molecular target: SRSF protein kinase 3 (Homo sapiens) (UniProt Q9UPE1); experiment: Inhibition of SRPK3 assessed as enzyme activity at 1 uM relative to untreated control; parameters: scale not given: the % may be the effect or the level left
[20] = molecular target: Vascular endothelial growth factor receptor 1 (Homo sapiens) (UniProt P17948); experiment: Inhibition of FLT1 assessed as enzyme activity at 1 uM relative to untreated control; parameters: scale not given: the % may be the effect or the level left
[21] = molecular target: Casein kinase II subunit alpha (Homo sapiens) (UniProt P68400); experiment: Inhibition of CSNK2A1 assessed as enzyme activity at 1 uM relative to untreated control; parameters: scale not given: the % may be the effect or the level left
[22] = system: Tyrosine-protein kinase ABL1 (Homo sapiens), P00519 [H396P]; experiment: Inhibition of ABL1 H396P mutant assessed as enzyme activity at 1 uM relative to untreated control; parameters: scale not given: the % may be the effect or the level left
[23] = molecular target: RAC-beta serine/threonine-protein kinase (Homo sapiens) (UniProt P31751); experiment: Inhibition of AKT2 assessed as enzyme activity at 1 uM relative to untreated control; parameters: scale not given: the % may be the effect or the level left
[24] = molecular target: Mitogen-activated protein kinase 13 (Homo sapiens) (UniProt O15264); experiment: Inhibition of p38delta assessed as enzyme activity at 1 uM relative to untreated control; parameters: scale not given: the % may be the effect or the level left
[25] = molecular target: Serine/threonine-protein kinase NLK (Homo sapiens) (UniProt Q9UBE8); experiment: Inhibition of NLK assessed as enzyme activity at 1 uM relative to untreated control; parameters: scale not given: the % may be the effect or the level left
[26] = molecular target: Mitogen-activated protein kinase kinase kinase kinase 3 (Homo sapiens) (UniProt Q8IVH8); experiment: Inhibition of MAP4K3 assessed as enzyme activity at 1 uM relative to untreated control; parameters: scale not given: the % may be the effect or the level left
[27] = molecular target: Calcium/calmodulin-dependent protein kinase type 1 (Homo sapiens) (UniProt Q14012); experiment: Inhibition of CAMK1 assessed as enzyme activity at 1 uM relative to untreated control; parameters: scale not given: the % may be the effect or the level left
A-375 = experiment: Antitumor activity against human A375 SQ2 cells xenografted in CD1 mouse assessed as regression of tumor growth at 5 mg/kg, po qd for 14 days; type: functional
[28] = molecular target: LIM domain kinase 1 (Homo sapiens) (UniProt P53667); experiment: Inhibition of LIMK1 assessed as enzyme activity at 1 uM relative to untreated control; parameters: scale not given: the % may be the effect or the level left
[29] = molecular target: Maternal embryonic leucine zipper kinase (Homo sapiens) (UniProt Q14680); experiment: Inhibition of MELK assessed as enzyme activity at 1 uM relative to untreated control; parameters: scale not given: the % may be the effect or the level left
[30] = molecular target: MAP kinase-interacting serine/threonine-protein kinase 2 (Homo sapiens) (UniProt Q9HBH9); experiment: Inhibition of MKNK2 assessed as enzyme activity at 1 uM relative to untreated control; parameters: scale not given: the % may be the effect or the level left
[31] = molecular target: Citron Rho-interacting kinase (Homo sapiens) (UniProt O14578); experiment: Inhibition of CIT assessed as enzyme activity at 1 uM relative to untreated control; parameters: scale not given: the % may be the effect or the level left
[32] = molecular target: Ephrin type-B receptor 4 (Homo sapiens) (UniProt P54760); experiment: Inhibition of EPHB4 assessed as enzyme activity at 1 uM relative to untreated control; parameters: scale not given: the % may be the effect or the level left
[33] = molecular target: Phosphorylase b kinase gamma catalytic chain, skeletal muscle/heart isoform (Homo sapiens) (UniProt Q16816); experiment: Inhibition of PHKG1 assessed as enzyme activity at 1 uM relative to untreated control; parameters: scale not given: the % may be the effect or the level left
[34] = system: Epidermal growth factor receptor (Homo sapiens), P00533 [L858R]; experiment: Inhibition of EGFR L858R mutant assessed as enzyme activity at 1 uM relative to untreated control; type: protein assay; parameters: scale not given: the % may be the effect or the level left
[35] = molecular target: Mitogen-activated protein kinase kinase kinase kinase 4 (Homo sapiens) (UniProt O95819); experiment: Inhibition of MAP4K4 assessed as enzyme activity at 1 uM relative to untreated control; parameters: scale not given: the % may be the effect or the level left
[36] = molecular target: Serine/threonine-protein kinase MARK2 (Homo sapiens) (UniProt Q7KZI7); experiment: Inhibition of MARK2 assessed as enzyme activity at 1 uM relative to untreated control; parameters: scale not given: the % may be the effect or the level left

Chain of Maternal embryonic leucine zipper kinase (Homo sapiens) (Q14680 whole entry, looked up): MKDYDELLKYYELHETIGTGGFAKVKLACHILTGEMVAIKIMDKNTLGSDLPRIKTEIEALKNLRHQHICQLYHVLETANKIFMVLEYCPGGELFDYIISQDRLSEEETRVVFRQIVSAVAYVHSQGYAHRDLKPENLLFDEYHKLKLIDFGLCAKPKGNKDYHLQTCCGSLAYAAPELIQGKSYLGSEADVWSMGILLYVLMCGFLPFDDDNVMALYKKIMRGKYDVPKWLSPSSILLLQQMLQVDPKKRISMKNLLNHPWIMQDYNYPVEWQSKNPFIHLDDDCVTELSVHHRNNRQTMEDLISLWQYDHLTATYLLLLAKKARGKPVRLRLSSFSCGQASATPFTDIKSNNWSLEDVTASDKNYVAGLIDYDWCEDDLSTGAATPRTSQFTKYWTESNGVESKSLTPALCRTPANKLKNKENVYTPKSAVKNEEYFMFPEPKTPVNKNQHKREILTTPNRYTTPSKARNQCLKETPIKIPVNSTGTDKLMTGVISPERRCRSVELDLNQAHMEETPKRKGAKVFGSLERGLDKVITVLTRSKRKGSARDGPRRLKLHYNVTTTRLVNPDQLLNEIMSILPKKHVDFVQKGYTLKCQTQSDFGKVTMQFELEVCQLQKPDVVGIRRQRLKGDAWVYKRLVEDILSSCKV
Chain of Serine/threonine-protein kinase NLK (Homo sapiens) (Q9UBE8 whole entry): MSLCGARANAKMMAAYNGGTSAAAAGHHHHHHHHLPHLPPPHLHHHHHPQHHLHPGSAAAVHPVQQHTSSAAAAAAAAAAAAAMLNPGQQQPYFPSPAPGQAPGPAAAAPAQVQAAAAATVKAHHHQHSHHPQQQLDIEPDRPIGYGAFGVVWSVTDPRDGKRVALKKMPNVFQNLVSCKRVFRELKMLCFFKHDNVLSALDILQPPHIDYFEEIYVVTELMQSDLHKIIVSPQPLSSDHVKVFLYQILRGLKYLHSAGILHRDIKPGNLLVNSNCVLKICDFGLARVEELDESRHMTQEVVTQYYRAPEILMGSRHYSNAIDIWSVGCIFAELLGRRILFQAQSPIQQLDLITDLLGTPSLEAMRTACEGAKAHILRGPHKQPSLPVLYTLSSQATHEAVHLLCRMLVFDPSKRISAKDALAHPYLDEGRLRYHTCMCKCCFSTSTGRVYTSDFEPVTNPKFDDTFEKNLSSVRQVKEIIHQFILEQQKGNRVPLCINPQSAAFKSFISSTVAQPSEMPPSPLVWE
Chain of Mitogen-activated protein kinase kinase kinase 9 (Homo sapiens) (P80192 whole entry, looked up): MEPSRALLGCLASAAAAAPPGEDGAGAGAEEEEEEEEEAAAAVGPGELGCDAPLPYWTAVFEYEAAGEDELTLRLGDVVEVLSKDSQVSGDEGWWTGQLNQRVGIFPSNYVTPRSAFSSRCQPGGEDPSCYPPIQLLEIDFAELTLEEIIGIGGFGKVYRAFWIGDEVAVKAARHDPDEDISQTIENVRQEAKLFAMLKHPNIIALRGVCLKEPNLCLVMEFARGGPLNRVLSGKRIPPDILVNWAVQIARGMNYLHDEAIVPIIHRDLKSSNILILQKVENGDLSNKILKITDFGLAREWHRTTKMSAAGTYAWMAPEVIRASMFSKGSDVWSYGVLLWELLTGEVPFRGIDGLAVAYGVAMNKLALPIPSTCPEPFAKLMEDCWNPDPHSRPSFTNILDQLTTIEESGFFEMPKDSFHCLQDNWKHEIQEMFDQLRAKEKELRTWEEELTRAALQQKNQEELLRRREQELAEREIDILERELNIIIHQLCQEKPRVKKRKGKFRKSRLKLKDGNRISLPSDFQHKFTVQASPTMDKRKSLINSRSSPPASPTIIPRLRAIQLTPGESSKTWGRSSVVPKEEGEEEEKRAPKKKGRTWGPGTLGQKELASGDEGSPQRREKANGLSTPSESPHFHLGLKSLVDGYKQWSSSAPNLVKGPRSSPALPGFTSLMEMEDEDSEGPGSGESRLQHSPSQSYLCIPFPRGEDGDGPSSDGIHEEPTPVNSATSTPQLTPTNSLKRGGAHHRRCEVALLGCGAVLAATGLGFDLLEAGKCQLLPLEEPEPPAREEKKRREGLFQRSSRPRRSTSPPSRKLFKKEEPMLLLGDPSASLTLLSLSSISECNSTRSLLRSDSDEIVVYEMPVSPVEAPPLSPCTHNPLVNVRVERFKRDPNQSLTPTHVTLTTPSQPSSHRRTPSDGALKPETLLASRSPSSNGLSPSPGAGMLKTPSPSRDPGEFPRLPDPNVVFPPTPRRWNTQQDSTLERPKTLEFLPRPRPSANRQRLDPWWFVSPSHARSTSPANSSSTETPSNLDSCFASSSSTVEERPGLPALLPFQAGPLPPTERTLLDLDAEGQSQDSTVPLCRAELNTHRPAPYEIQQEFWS
Chain of Serine/threonine-protein kinase MARK1 (Homo sapiens) (Q9P0L2 whole entry, looked up): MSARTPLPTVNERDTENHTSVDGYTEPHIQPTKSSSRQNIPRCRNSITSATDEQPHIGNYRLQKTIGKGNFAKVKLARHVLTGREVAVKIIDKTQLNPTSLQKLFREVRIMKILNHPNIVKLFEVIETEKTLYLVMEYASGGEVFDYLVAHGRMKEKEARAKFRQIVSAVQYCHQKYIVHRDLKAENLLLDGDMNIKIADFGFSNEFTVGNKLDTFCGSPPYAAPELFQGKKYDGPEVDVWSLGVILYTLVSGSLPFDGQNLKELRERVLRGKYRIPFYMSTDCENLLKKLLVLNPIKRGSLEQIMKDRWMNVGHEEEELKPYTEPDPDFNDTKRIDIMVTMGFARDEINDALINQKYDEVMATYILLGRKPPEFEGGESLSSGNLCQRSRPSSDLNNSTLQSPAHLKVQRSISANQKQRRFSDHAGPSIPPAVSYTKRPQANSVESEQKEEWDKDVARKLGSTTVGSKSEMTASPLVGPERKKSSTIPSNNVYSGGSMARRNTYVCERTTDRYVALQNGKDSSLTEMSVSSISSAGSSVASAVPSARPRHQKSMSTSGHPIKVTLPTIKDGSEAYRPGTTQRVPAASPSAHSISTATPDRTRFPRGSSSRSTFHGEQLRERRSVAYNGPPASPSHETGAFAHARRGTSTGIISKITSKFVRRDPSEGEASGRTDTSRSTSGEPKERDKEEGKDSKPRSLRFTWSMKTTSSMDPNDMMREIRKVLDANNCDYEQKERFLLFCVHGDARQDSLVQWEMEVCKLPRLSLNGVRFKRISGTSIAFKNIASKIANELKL
Chain of Macrophage colony-stimulating factor 1 receptor (Homo sapiens) (P07333 whole entry): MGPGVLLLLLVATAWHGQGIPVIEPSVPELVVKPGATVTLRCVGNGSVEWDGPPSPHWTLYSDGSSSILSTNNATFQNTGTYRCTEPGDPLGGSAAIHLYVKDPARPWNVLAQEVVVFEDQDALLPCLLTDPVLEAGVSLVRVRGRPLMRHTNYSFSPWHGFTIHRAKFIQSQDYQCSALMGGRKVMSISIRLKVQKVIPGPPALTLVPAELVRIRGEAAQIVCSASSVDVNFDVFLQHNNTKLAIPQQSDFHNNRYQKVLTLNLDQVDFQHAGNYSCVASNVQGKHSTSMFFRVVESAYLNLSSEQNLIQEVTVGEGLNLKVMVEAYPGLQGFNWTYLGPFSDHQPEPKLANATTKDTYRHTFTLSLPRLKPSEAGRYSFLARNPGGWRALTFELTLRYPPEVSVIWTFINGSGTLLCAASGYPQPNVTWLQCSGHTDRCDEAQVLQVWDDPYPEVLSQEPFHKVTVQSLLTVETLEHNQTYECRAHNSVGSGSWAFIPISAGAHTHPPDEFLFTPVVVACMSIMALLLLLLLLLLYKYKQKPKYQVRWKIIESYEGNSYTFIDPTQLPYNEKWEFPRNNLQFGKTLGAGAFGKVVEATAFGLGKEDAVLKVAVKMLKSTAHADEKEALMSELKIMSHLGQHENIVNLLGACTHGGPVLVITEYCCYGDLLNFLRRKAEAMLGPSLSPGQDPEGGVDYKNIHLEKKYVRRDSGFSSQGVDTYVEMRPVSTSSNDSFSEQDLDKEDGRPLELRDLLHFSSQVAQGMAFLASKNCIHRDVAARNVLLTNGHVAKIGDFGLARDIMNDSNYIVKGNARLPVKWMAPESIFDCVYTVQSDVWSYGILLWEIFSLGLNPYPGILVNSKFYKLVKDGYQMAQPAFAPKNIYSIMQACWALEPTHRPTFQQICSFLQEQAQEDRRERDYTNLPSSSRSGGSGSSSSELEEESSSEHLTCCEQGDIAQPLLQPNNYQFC
Chain of Ribosomal protein S6 kinase alpha-4 (Homo sapiens) (O75676 whole entry, looked up, the tested form may be a part): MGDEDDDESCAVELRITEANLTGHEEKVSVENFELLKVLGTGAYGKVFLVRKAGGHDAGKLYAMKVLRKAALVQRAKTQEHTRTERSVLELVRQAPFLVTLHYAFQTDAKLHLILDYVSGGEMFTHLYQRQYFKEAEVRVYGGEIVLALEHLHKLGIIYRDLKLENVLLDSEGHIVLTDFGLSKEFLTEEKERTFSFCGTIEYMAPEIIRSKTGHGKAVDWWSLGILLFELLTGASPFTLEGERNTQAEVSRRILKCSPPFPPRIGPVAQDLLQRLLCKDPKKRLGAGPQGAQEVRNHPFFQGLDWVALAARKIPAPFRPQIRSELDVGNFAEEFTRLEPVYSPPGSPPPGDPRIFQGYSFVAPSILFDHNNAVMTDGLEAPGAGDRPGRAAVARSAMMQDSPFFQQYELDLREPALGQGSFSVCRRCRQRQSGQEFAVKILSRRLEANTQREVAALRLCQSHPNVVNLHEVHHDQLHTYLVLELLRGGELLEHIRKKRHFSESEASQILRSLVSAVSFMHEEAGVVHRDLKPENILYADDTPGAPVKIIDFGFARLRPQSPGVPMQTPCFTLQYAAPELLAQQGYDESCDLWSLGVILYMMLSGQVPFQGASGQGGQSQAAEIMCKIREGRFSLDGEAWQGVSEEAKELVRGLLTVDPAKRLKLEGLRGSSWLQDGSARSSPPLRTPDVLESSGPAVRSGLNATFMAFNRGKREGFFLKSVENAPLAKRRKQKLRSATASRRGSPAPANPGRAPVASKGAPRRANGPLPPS

For `Cc1ccc2c(Nc3ccc(Cl)cc3)nccc2c1Nc1ncccc1-c1ncnc2[nH]cnc12.Cl.Cl.Cl`, the Activity [1] was 89%, the Activity [2] was 100% and the pIC50 (Angiopoietin-1 receptor) was 6.92. The Activity [3] was 79%, the Activity [4] was 100% and the Activity [5] was 97%. For the same compound, the bioavailability [6] was 79%, the Activity [7] was 100% and the Activity [8] was 87%. It also gave an Activity [9] of 42%, an Activity [10] of 100% and an Activity [11] of 98%. For the same compound, the Activity [12] was 84%, the Activity [13] was 92% and the Activity [14] was 98%. It also gave an Activity [15] of 100%, an Activity [16] of 0.25% and an Activity [17] of 90%. The half-life [18] was 3.5 h, the Activity [19] was 100% and the Activity [20] was 2.2%. For the same compound, the Activity [21] was 100%, the Activity [22] was 84% and the Activity [23] was 88%. For the same compound, the Activity [24] was 100%, the Activity [25] was 83% and the Activity [26] was 85%. For the same compound, the Activity [27] was 100%, the Activity (A-375) was 85% and the Activity [28] was 55%. For the same compound, the Activity [29] was 100%, the Activity [30] was 100% and the Activity [31] was 64%. It also gave an Activity [32] of 6.5%, an Activity [33] of 99% and an Activity [34] of 100%. It also gave an Activity [35] of 95% and an Activity [36] of 100%.
